Measured values reported in patent US8471005B2 (Cephalon, Inc., priority 2008, dated 2013).
Read-outs that look alike come from different tables or passages of the source.

Target: T1, ALK (Homo sapiens, UniProt Q9UM73)
T1 construct: host or cells: baculovirus expression system
Assay: ALK Kinase Assay (ELISA/TRF, PLC-γ substrate)
Assay type: biochemical
Conditions: read-out: ALK Potency
Method: Briefly, each 96-well plate was coated with […] of 10 μg/mL substrate (phospholipase C-γ) in Tris-buffered saline (TBS). […] The reaction was initiated by adding enzyme (30 ng/ml ALK) and was allowed to proceed at 37° C. for 15 minutes. Detection of the phosphorylated product was performed by adding 100 μl/well of Eu—N1 labeled PT66 antibody (Perkin Elmer # AD0041).
Data analysis was performed using ActivityBase (IDBS, Guilford, UK). IC50 values were calculated by plotting percent inhibition versus log10 of the concentration of compound and fitting to the nonlinear regression sigmoidal dose-response (variable slope) equation in XLFit (IDBS, Guilford, UK).

[1] = ALK kinase inhibition, 1 μM ATP

T1 sequence (Q9UM73 19-1620): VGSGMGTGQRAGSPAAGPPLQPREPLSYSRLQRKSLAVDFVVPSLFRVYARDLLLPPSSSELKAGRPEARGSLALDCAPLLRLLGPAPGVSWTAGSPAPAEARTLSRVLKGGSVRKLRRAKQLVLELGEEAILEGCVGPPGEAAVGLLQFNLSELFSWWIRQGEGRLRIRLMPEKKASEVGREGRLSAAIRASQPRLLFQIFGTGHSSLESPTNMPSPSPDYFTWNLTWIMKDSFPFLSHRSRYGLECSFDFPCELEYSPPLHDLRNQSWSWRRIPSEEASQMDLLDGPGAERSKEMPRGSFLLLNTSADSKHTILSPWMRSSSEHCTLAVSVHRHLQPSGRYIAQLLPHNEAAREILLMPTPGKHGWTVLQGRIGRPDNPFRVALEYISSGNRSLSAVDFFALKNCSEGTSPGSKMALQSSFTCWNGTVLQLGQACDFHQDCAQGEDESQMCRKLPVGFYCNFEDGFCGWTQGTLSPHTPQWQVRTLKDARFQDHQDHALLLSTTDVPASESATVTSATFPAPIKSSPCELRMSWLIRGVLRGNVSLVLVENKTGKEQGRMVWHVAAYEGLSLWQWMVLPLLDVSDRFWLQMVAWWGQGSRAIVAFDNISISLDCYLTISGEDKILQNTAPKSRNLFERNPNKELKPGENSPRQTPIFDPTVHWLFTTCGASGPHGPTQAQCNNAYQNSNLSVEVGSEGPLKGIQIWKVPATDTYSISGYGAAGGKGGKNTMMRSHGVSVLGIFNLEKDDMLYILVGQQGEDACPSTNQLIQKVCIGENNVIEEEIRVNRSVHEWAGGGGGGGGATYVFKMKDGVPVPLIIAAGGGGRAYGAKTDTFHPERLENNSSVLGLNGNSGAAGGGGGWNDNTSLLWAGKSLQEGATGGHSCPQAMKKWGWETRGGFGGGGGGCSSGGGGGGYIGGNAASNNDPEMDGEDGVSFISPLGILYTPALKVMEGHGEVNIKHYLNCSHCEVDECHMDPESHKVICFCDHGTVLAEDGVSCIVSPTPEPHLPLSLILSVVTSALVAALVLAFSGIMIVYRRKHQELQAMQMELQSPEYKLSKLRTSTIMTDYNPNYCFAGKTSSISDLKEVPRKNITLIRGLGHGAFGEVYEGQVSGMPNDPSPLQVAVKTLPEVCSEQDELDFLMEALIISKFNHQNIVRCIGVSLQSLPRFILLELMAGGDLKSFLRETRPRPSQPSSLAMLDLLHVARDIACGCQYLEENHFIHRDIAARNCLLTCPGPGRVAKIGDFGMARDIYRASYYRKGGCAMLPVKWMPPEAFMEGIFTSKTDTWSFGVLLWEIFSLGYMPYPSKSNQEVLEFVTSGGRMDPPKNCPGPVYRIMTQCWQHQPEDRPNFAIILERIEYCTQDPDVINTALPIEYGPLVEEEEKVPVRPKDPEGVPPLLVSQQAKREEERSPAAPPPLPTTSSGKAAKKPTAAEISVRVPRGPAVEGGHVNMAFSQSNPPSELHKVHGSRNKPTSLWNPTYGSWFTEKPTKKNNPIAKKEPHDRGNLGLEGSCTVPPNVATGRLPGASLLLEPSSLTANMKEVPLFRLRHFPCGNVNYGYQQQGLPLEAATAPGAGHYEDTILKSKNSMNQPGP

Row | Molecule | IC50 [1] [nM] | IC50 (ALK Kinase Inhibition) [nM]
1 | COc1cc(N2CCN(C[C@H](O)CO)CC2)ccc1Nc1ncc2ccc(-c3cc(Cl)ccc3OC)n2n1 [Example 759, (S)-3-(4-{4-[7-(5-Chloro-2-methoxy-phenyl)-pyrrolo[2,1-f][1,2,4]triazin-2-ylamino]-3-methoxy-phenyl}-piperazin-1-yl)-propane-1,2-diol] | < 100 | 
2 | COc1ccc(-c2ccc3cnc(Nc4ccc(N5CCN(C)CC5)cc4)nn23)cn1 [Example 81, [7-(6-Methoxy-pyridin-3-yl)-pyrrolo[2,1-f][1,2,4]triazin-2-yl]-[4-(4-methyl-piperazin-1-yl)-phenyl]-amine] |  | 100 to 1000
3 | C[C@H](O)CN1CCN(c2ccc(Nc3ncc4ccc(-c5cccc(S(=O)(=O)NC(C)(C)C)c5)n4n3)cc2F)CC1 [Example 1412, N-tert-Butyl-3-(2-{3-fluoro-4-[4-((S)-2-hydroxy-propyl)-piperazin-1-yl]-phenylamino}-pyrrolo[2,1-f][1,2,4]triazin-7-yl)-benzenesulfonamide] |  | < 100
4 | COc1cc(N2CCC(N3CCNCC3)CC2)ccc1Nc1ncc2ccc(-c3ccccc3OC)n2n1 [Example 537, [7-(2-Methoxy-phenyl)-pyrrolo[2,1-f][1,2,4]triazin-2-yl]-[2-methoxy-4-(4-piperazin-1-yl-piperidin-1-yl)-phenyl]-amine] | < 100 | 
5 | COc1ccccc1-c1ccc2cnc(Nc3ccc(N4CCN(C)CC4)c(F)c3)nn12 [Example 90, [3-Fluoro-4-(4-methyl-piperazin-1-yl)-phenyl]-[7-(2-methoxy-phenyl)-pyrrolo[2,1-f][1,2,4]triazin-2-yl]-amine] |  | < 100
6 | CS(=O)(=O)N1Cc2cccc(-c3ccc4cnc(Nc5ccc(C6CCN(CC(N)=O)CC6)cc5)nn34)c2C1 [Example 579, 2-(4-{4-[7-(2-Methanesulfonyl-2,3-dihydro-1H-isoindol-4-yl)-pyrrolo[2,1-f][1,2,4]triazin-2-ylamino]-phenyl}-piperidin-1-yl)-acetamide] | 1000 to 10000 | 
7 | COc1cc(N2CCC(N3CCN(C(C)=O)CC3)CC2)ccc1Nc1ncc2ccc(-c3ccccc3OC)n2n1 [Example 536, 1-[4-(1-{3-Methoxy-4-[7-(2-methoxy-phenyl)-pyrrolo[2,1-f][1,2,4]triazin-2-ylamino]-phenyl}-piperidin-4-yl)-piperazin-1-yl]-ethanone] | < 100 | 
8 | Cc1cc(-c2ccccc2N(C)S(C)(=O)=O)n2nc(Nc3ccc(C4CCN(CC(N)=O)CC4)cc3)ncc12 [Example 1261, 2-[4-(4-{7-[2-(Methanesulfonyl-methyl-amino)-phenyl]-5-methyl-pyrrolo[2,1-f][1,2,4]triazin-2-ylamino}-phenyl)-piperidin-1-yl]-acetamide] | < 100 | 
9 | COc1ccc(C2CCN(C)CC2)cc1Nc1ncc2ccc(-c3ccccc3OC)n2n1 [Example 770, [2-Methoxy-5-(1-methyl-piperidin-4-yl)-phenyl]-[7-(2-methoxy-phenyl)-pyrrolo[2,1-f][1,2,4]triazin-2-yl]-amine] | < 100 | 
10 | CN1CCN(c2ccc(Nc3ncc4ccc(-c5ccccc5N(C)S(C)(=O)=O)n4n3)cc2)CC1 [Example 627, N-Methyl-N-(2-{2-[4-(4-methyl-piperazin-1-yl)phenylamino]pyrrolo[2,1-f][1,2,4]triazin-7-yl}phenyl)methanesulfonamide] | < 100 | 
11 | Cc1cc2cnc(Nc3ccc(N4CCN(C)CC4)cc3)nn2c1-c1cccc(CCC#N)c1 [Example 1160, 3-(3-{6-Methyl-2-[4-(4-methyl-piperazin-1-yl)-phenylamino]-pyrrolo[2,1-f][1,2,4]triazin-7-yl}-phenyl)-propionitrile] | < 100 | 
12 | CN1CCN(c2ccc(Nc3ncc4ccc(-c5cccc(S(=O)(=O)NC(C)(C)C)c5)n4n3)cc2Cl)CC1 [Example 1411, N-tert-Butyl-3-{2-[3-chloro-4-(4-methyl-piperazin-1-yl)-phenylamino]-pyrrolo[2,1-f][1,2,4]triazin-7-yl}-benzenesulfonamide] |  | < 100
13 | N-tert-Butyl-3-{2-[3-fluoro-4-(4-methyl-piperazin-1-yl)-phenylamino]-pyrrolo[2,1-f][1,2,4]triazin-7-yl}-benzenesulfonamide [Example 1216] | 100 to 1000 | 
14 | COc1ccccc1-c1ccc2cnc(Nc3ccc(N4CCN(C)CC4)cc3)nn12 [Example 20, [7-(2-Methoxy-phenyl)-pyrrolo[2,1-f][1,2,4]triazin-2-yl]-[4-(4-methyl-piperazin-1-1)-phenyl]-amine] |  | < 100
15 | COc1cc2c(cc1Nc1ncc3ccc(-c4ccccc4OC)n3n1)CCCC(N1CCOCC1)C2 (stereo not drawn) [Example 992, (3-Methoxy-6-morpholin-4-yl-6,7,8,9-tetrahydro-5H-benzocyclohepten-2-yl)-[7-(2-methoxy-phenyl)-pyrrolo[2,1-f][1,2,4]triazin-2-yl]-amine] | < 100 | 
16 | COc1cc(N2CCN(C[C@H](O)CO)CC2)ccc1Nc1ncc2ccc(-c3ccccc3OC)n2n1 [Example 760, (S)-3-(4-{3-Methoxy-4-[7-(2-methoxy-phenyl)-pyrrolo[2,1-f][1,2,4]triazin-2-ylamino]-phenyl}-piperazin-1-yl)-propane-1,2-diol] | < 100 | 
17 | CN1CCN(c2ccc(Nc3ncc4ccc(-c5cccc(S(=O)(=O)NC(C)(C)C)c5)n4n3)cc2)CC1 [Example 23, N-tert-Butyl-3-{2-[4-(4-methyl-piperazin-1-yl)-phenylamino]-pyrrolo[2,1-f][1,2,4]triazin-7-yl}-benzenesulfonamide] |  | < 100
18 | CN1CCN(c2ccc(Nc3ncc4ccc(-c5ccccc5N(C)S(C)(=O)=O)n4n3)c(Cl)c2)CC1 [Example 507, N-(2-{2-[2-Chloro-4-(4-methyl-piperazin-1-yl)-phenylamino]-pyrrolo[2,1-f][1,2,4]triazin-7-yl}-phenyl)-N-methyl-methanesulfonamide] | < 100 | 
19 | COc1cc(N2CCCN(C[C@H](O)CO)CC2)ccc1Nc1ncc2ccc(-c3ccccc3OC)n2n1 [Example 767, (S)-3-(4-{3-Methoxy-4-[7-(2-methoxy-phenyl)-pyrrolo[2,1-f][1,2,4]triazin-2-ylamino]-phenyl}-[1,4]diazepan-1-yl)-propane-1,2-diol] | < 100 | 

Now from value to molecule:

Row | IC50 [1] [nM] | IC50 (ALK Kinase Inhibition) [nM] | Molecule
20 |  | < 100 | COc1ccccc1-c1ccc2cnc(Nc3ccc(N4CCN(C)CC4)c(Cl)c3)nn12 [Example 1418, [3-Chloro-4-(4-methyl-piperazin-1-yl)-phenyl]-[7-(2-methoxy-phenyl)-pyrrolo[2,1-f][1,2,4]triazin-2-yl]-amine]
21 |  | < 100 | COc1cc(N2CCCC(N3CCN(CCO)CC3)C2)ccc1Nc1ncc2ccc(-c3ccccc3OC)n2n1 (stereo not drawn) [Example 1443, 2-[4-(1-{3-Methoxy-4-[7-(2-methoxy-phenyl)-pyrrolo[2,1-f][1,2,4]triazin-2-ylamino]-phenyl}-piperidin-3-yl)-piperazin-1-yl]-ethanol]
22 |  | < 100 | COc1cc(N2CCCC(N3CCNCC3)C2)ccc1Nc1ncc2ccc(-c3ccccc3OC)n2n1 (stereo not drawn) [Example 1448, [7-(2-Methoxy-phenyl)-pyrrolo[2,1-f][1,2,4]triazin-2-yl]-[2-methoxy-4-(3-piperazin-1-yl-piperidin-1-yl)-phenyl]-amine]
23 |  | < 100 | COc1cc(N2CCC(N3CCOCC3)CC2)ccc1Nc1ncc2ccc(-c3cccc(NS(C)(=O)=O)c3)n2n1 [Example 1446, N-(3-{2-[2-Methoxy-4-(4-morpholin-4-yl-piperidin-1-yl)-phenylamino]-pyrrolo[2,1-f][1,2,4]triazin-7-yl}-phenyl)-methanesulfonamide]
24 |  | < 100 | COc1ccccc1-c1ccc2cnc(Nc3ccc(N4CCN(C[C@H](C)O)CC4)c(F)c3)nn12 [Example 1417, (S)-1-(4-{2-Fluoro-4-[7-(2-methoxy-phenyl)-pyrrolo[2,1-f][1,2,4]triazin-2-ylamino]-phenyl}-piperazin-1-yl)-propan-2-ol]
25 |  | < 100 | CCOc1ccccc1-c1ccc2cnc(Nc3ccc(N4CCC(N5CCOCC5)CC4)cc3OC)nn12 [Example 1447, [7-(2-Ethoxy-phenyl)-pyrrolo[2,1-f][1,2,4]triazin-2-yl]-[2-methoxy-4-(4-morpholin-4-yl-piperidin-1-yl)-phenyl]-amine]
26 |  | < 100 | CN1CCN(c2ccc(Nc3ncc4ccc(-c5ccccc5N(C)S(C)(=O)=O)n4n3)cc2Cl)CC1 [Example 1424, N-(2-{2-[3-Chloro-4-(4-methyl-piperazin-1-yl)-phenylamino]-pyrrolo[2,1-f][1,2,4]triazin-7-yl}-phenyl)-N-methyl-methanesulfonamide]
27 |  | < 100 | COc1cc(N2CCC(N3CCOCC3)CC2)ccc1Nc1ncc2ccc(-c3cccc(N(C)S(C)(=O)=O)c3)n2n1 [Example 1449, N-(3-{2-[2-Methoxy-4-(4-morpholin-4-yl-piperidin-1-yl)-phenylamino]-pyrrolo[2,1-f][1,2,4]triazin-7-yl}-phenyl)-N-methyl-methanesulfonamide]
28 |  | < 100 | CN1CCN(c2ccc(Nc3ncc4ccc(-c5ccccc5N(C)S(C)(=O)=O)n4n3)cc2F)CC1 [Example 1421, N-(2-{2-[3-Fluoro-4-(4-methyl-piperazin-1-yl)-phenylamino]-pyrrolo[2,1-f][1,2,4]triazin-7-yl}-phenyl)-N-methyl-methanesulfonamide]
29 |  | < 100 | C[C@H](O)CN1CCN(c2ccc(Nc3ncc4ccc(-c5ccccc5N(C)S(C)(=O)=O)n4n3)cc2F)CC1 [Example 1423, N-[2-(2-{3-Fluoro-4-[4-((S)-2-hydroxy-propyl)-piperazin-1-yl]-phenylamino}-pyrrolo[2,1-f][1,2,4]triazin-7-yl)-phenyl]-N-methyl-methanesulfonamide]
30 |  | 100 to 1000 | COc1ccc(-c2ccc3cnc(Nc4ccc(N5CCN(C)CC5)c(Cl)c4)nn23)cn1 [Example 1419, [3-Chloro-4-(4-methyl-piperazin-1-yl)-phenyl]-[7-(6-methoxy-pyridin-3-yl)-pyrrolo[2,1-f][1,2,4]triazin-2-yl]-amine]
